# Test results as given in patent publication US9051592B2, “Methods of ganglioside production” (Garnet BioTherapeutics, Inc., priority 2012, dated 2015).
# Like-named read-outs stand apart in the source and are kept apart here.
# How the values were obtained:
# GBT-ABMSC = type: cell-based, Human
# [1] = test system: GBT-ABMSC, Lonza BMSC, Lonza ADSC, dermal fibroblast and GM1 fb cells; type: cell-based, Human
# [2] = test system: Affected sheep bone marrow cells (SBM)
# SHSY-S = type: cell-based
# CHO-K1 = type: cell-based, Chinese Hamster
# [3] = test system: human bone marrow-derived cells (HBM); assay: GM1 up-regulation, CTB-HRP normalized to Alamar Blue (Example 3, FIG. 3); type: cell-based
# ADSC = type: cell-based, Human
# SHSY-5Y = type: cell-based, human
# Dermal fibroblast = type: cell-based, Human
# SK-N-AS = type: cell-based
# [4] = test system: HT22 (mouse hippocampal) cells; settings: Hirata et al., J. Neurochem. 119:839-847 (2011); cited from earlier work
# [5] = test system: SHSY-5Y, SHSY-S, SK-N-AS, CHO-K1 and HEK293 cells; type: cell-based
# Lonza BMSC = assay: GM1 induction by CLQ treatment, CTB-Alexa488 staining (Table 4); type: cell-based, Human; settings: Lonza MSC basal medium + growth supplements, 10,000 per well, CLQ 48-120 hours
# Protocol: Human bone marrow-derived stromal cells, adipose-derived stromal cells, dermal fibroblasts, and fibroblasts from subjects diagnosed with GM1 gangliosidosis, as well as immortalized neuroblastoma cells (SHSY-5Y, SHSY-S and SK-N-AS), Chinese Hamster Ovary cells (CHO-K1), and Human Embryonic Kidney cells (HEK293) were purchased from commercial sources. Cells were cultured on 24 well plates in standard culture medium, at a density of 2000-20,000 cells/well overnight and either maintained in standard culture medium (CONTROL) or treated with chloroquine (CLQ) according to the conditions listed in Table 4 below. Cells were maintained in a tissue culture incubator at approximately 37° C. in a humidified atmosphere comprising approximately 5% CO2 and approximately 21% O2 balanced with N2. After treatment for 48-120 hours, the cells were fixed with 4% paraformaldehyde and stained with CTB-Alexa488 to detect GM1 ganglioside. Extensive GM1 accumulation is evident in most cells types compared to controls maintained in standard culture media alone. (FIGS. 10 and 11 and Table 4).
# [6] = test system: Adult Human Bone Marrow Cells
# [7] = test system: Human bone marrow cells (HBM); settings: HBM 20,000 cells/well, serum-free medium 72 H, chloroquine 48 H
# [8] = test system: Affected sheep bone marrow cells (SBM); assay: GM1 induction in affected sheep bone marrow cells by different treatments, CTB-Alexa 488 staining (Table 2); settings: affected SBM 20,000 cells/well, 72 H (Poly-L-Lysine coated coverslips 6 Days)
# GM1 fibroblast = type: cell-based, Human
# HEK293 = type: cell-based, Human
# [9] = test system: PC12 (rat adrenal medulla tumor) cells; settings: Yuyama et al., FEBS Lett. 580:6972-6976 (2006); cited from earlier work
# [10] = test system: Parkinson's disease subjects; settings: short-term treatment; Schneider et al., Neurology 50:1630-1636 (1998); cited from earlier work
# [11] = test system: Parkinson's disease subjects; settings: five-year study; Schneider et al., J. Neurol. Sci. 292:45-51 (2010); cited from earlier work
# [12] = pretreatment; background statement; cited from earlier work
# [13] = test system: central nervous system lesions in experimental animals; settings: background statement; cited from earlier work
molecule,measurement,setting,value
"CCN(CC)CCCC(C)Nc1ccnc2cc(Cl)ccc12 (centres unmarked) [Chloroquine, chloroquine]",% Increase in Degree of Staining with induction,GBT-ABMSC,65%
same,"GM1 signal (CTB-Alexa488) compared to control conditions, FIG. 11",[1],more abundant and intense compared to control conditions for all cell types
same,Degree of Cell Death,[2],+
same,% Increase in Degree of Staining with induction,SHSY-S,19%
same,% Increase in Degree of Staining with induction,CHO-K1,83%
same,up-regulation of GM1 expression (CTB-HRP normalized to Alamar Blue) versus control,[3],approximately 8 fold
same,% Increase in Degree of Staining with induction,ADSC,28%
same,% Increase in Degree of Staining with induction,SHSY-5Y,104%
same,% Increase in Degree of Staining with induction,Dermal fibroblast,63%
same,Cell Death,SHSY-5Y cells,+
same,% Increase in Degree of Staining with induction,SK-N-AS,19%
same,GM1 levels in HT22 cells,[4],only moderately increased GM1 levels
same,"GM1 signal (CTB-Alexa488) compared to control conditions, FIG. 10",[5],more abundant and intense compared to control conditions for all cell types
same,% Increase in Degree of Staining with induction,Lonza BMSC,119%
same,Cell Death,[6],10-20%
same,Degree of GM1 Staining,[7],+++++
same,Degree of GM1 Staining,[7]; listed as CLQ,most intense staining
same,Degree of GM1 Staining,[8]; listed as CLQ,"also induced GM1, but not as much as CLQ/NIM"
same,% Increase in Degree of Staining with induction,GM1 fibroblast,28%
same,% Increase in Degree of Staining with induction,HEK293,15%
same,accumulation in PC12 cells,[9],induce accumulation
CCCCCCCCCCCCC/C=C/[C@@H](O)[C@H](CO[C@@H]1O[C@H](CO)[C@@H](O[C@@H]2O[C@H](CO)[C@H](O[C@@H]3O[C@H](CO)[C@H](O)[C@H](O[C@@H]4O[C@H](CO)[C@H](O)[C@H](O)[C@H]4O)[C@H]3NC(C)=O)[C@H](O[C@]3(C(=O)O)C[C@@](O)(CO)[C@@H](NC(C)=O)[C@H]([C@H](O)CO)O3)[C@H]2O)[C@H](O)[C@H]1O)NC(=O)CCCCCCCCCCCCCCCCC [GM1],symptom reduction,[10],significant symptom reduction
same,clinical benefit of long-term use,[11],may provide some clinical benefit
same,safety of long-term use,[11],safe
same,damage resulting from neurotoxin exposures,[12],inhibits damage
same,recovery from central nervous system lesions,[13],significant biochemical and behavioral recovery
"N[C@H]1C(O)O[C@H](CO)[C@@H](O)[C@@H]1O (some centres unmarked) [Glucosamine, glucosamine]",Degree of GM1 Staining,[8],"also induced GM1, but to a lesser degree"
"O=C[C@H](O)[C@@H](O)[C@@H](O)[C@H](O)CO [Switch from No glucose to galactose, galactose]",Cell Death,SHSY-5Y cells,−
PDGF,Degree of Cell Death,[2],−
